# Measurements as given in paper PMC10148881, “Recognition of an Ala-rich C-degron by the E3 ligase Pirh2” (Nature Communications, 2023).
# Changes are numbered by the printed parent chain. Like-named read-outs stand apart in the source and are kept apart here. Ends that are not written are not given here. Peptide text beside a SMILES is read from it.
# Experiments:
# Pirh2 (NTD + RING) = biological target: T1, Pirh2 (NTD + RING) (Homo sapiens, UniProt Q96PM5); experiment: ITC of degron peptides with Pirh2 NTD + RING; format: binding
# T1 construct: Pirh2 NTD + RING (residues 1–189); 8xHis-SUMO (N, cleaved yes); made in house; host or cells: E. coli BL21 (DE3)
# T1 sequence (Q96PM5 1-189): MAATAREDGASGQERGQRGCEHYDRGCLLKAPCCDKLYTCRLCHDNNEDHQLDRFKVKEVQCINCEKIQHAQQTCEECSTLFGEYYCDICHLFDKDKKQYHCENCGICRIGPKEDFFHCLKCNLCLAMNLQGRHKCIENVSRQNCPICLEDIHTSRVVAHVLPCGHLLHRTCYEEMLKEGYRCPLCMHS
# Text: The DNA fragments corresponding to human full-length Pirh2 (residues 1–261), Pirh2 NTD + RING (residues 1–189), Pirh2 NTD (residues 1–137), Pirh2 RING + CTD (residues 138–261), Pirh2 RING (residues 138–189) and Pirh2 CTD (residues […]) were cloned by seamless cloning into the pET28-MKH8SUMO vector (Addgene Plasmid #79526), which contains an 8× His-SUMO tag followed by a Tobacco etch virus (TEV) cleavage site. The DNA fragment of Pirh2 (residues 15–191)-linker (GSGSG)-polyAla (AAAAAA) was cloned into the pGEX vector, which contains a GST tag followed by a TEV cleavage site. The recombinant plasmids were transformed into E. coli BL21 (DE3) and the expression of the target proteins was induced with 0.2 mM isopropyl β-D-1-thiogalactopyranoside (IPTG) supplemented with 100 μM ZnCl2 at 18 °C overnight. Cells were harvested by centrifugation and resuspended in lysis buffer (20 mM Tris-HCl pH 8.5, 400 mM NaCl, 5% v/v glycerol, 10 μM ZnCl2 and 2 mM β-mercaptoethanol). The cells were lysed by sonication on ice and the lysates were clarified by centrifugation at 14,000 rpm for 40 min at 4 °C. The lysate containing GST tagged Pirh2-linker-polyAla was collected to incubate with GST beads for 1 h, and nonspecifically bound proteins were washed out by lysis buffer. The GST tag was proteolytically cleaved by adding the TEV protease to the GST beads overnight at 4 °C and the TEV protease was removed by passing through the Ni‐NTA column. The other supernatants were collected to incubate with Ni-NTA beads for 1 h at 4 °C. Nonspecifically bound proteins were washed out of Ni-NTA beads by washing buffer (20 mM Tris-HCl pH 8.5, 400 mM NaCl and 25 mM imidazole pH 8.5) and the fusion proteins were eluted by elution buffer (20 mM Tris-HCl pH 8.5, 400 mM NaCl and 300 mM imidazole pH 8.5). The SUMO tag was cleaved by TEV protease with a molar ration of 1: 20 in dialysis buffer (20 mM Tris-HCl pH 8.5 and 300 mM NaCl) at 4 °C overnight. The samples were reloaded onto the Ni-NTA column to remove the cleaved SUMO tag and TEV protease. Finally, all of the acquired proteins were further purified by size exclusion chromatography (Superdex 200 Increase 10/300 GL, GE healthcare), which was pre-equilibrated with gel-filtration buffer (20 mM Tris-HCl pH 7.5, 150 mM NaCl, 10 μM ZnCl2 and 1 mM DTT). Purified proteins were concentrated and stored at −80 °C for later use. Expression and purification of the mutants were performed in the same way as wild-type proteins.
# Isothermal titration calorimetry (ITC) measurements were performed at 16 °C using a MicroCal PEAQ-ITC instrument (Malvern Panalytical). Proteins and peptides were prepared in an ITC buffer (20 mM Tris-HCl pH 7.5, 150 mM NaCl and 10 μM Zn^2+). ITC experiments were performed by titrating 1.5 μL (with the exception of the first injection of 0.5 μL) of peptides (0.6–1.0 mM) into cell containing 180–220 μM proteins, with a spacing time of 90 s and a reference power of 10 μcal s^−1. The titration data were analyzed using the one-site binding model from MicroCal PEAQ-ITC Analysis Software version 1.30. All ITC assays were repeated at least three times independently with similar results.
# Pirh2 D94A = biological target: T2, Pirh2 D94A (Homo sapiens, UniProt Q96PM5, D94A); experiment: ITC of Ala6/C-degron peptide with mutant Pirh2 D94A; format: binding; settings: Fig. 4a
# T2 construct: Pirh2 NTD + RING (residues 1–189); 8xHis-SUMO (N, cleaved yes); made in house; host or cells: E. coli BL21 (DE3)
# T2 sequence (Q96PM5 1-189 D94A): T1 sequence (Q96PM5 1-189) with D94A
# Text: (§1) The DNA fragments corresponding to human full-length Pirh2 (residues 1–261), Pirh2 NTD + RING (residues 1–189), Pirh2 NTD (residues 1–137), Pirh2 RING + CTD (residues 138–261), Pirh2 RING (residues 138–189) and Pirh2 CTD (residues 187–261) were cloned by seamless cloning into the pET28-MKH8SUMO vector (Addgene Plasmid #79526), which contains an 8× His-SUMO tag followed by a Tobacco etch virus (TEV) cleavage site. The DNA fragment of Pirh2 (residues 15–191)-linker (GSGSG)-polyAla (AAAAAA) was cloned into the pGEX vector, which contains a GST tag followed by a TEV cleavage site. The recombinant plasmids were transformed into E. coli BL21 (DE3) and the expression of the target proteins was induced with 0.2 mM isopropyl β-D-1-thiogalactopyranoside (IPTG) supplemented with 100 μM ZnCl2 at 18 °C overnight. Cells were harvested by centrifugation and resuspended in lysis buffer (20 mM Tris-HCl pH 8.5, 400 mM NaCl, 5% v/v glycerol, 10 μM ZnCl2 and 2 mM β-mercaptoethanol). The cells were lysed by sonication on ice and the lysates were clarified by centrifugation at 14,000 rpm for 40 min at 4 °C. […]
# (§2) Isothermal titration calorimetry (ITC) measurements were performed at 16 °C using a MicroCal PEAQ-ITC instrument (Malvern Panalytical). […] The titration data were analyzed using the one-site binding model from MicroCal PEAQ-ITC Analysis Software version 1.30. […]
# full-length Pirh2 = biological target: T3, full-length Pirh2 (Homo sapiens, UniProt Q96PM5); experiment: ITC of degron peptide with full-length Pirh2; settings: 16 °C, 20 mM Tris-HCl pH 7.5, 150 mM NaCl, 10 μM Zn2+, one-site binding model, repeated at least three times
# T3 construct: human full-length Pirh2 (residues 1–261); 8xHis-SUMO (N, cleaved yes); made in house; host or cells: E. coli BL21 (DE3)
# T3 sequence (Q96PM5 1-261): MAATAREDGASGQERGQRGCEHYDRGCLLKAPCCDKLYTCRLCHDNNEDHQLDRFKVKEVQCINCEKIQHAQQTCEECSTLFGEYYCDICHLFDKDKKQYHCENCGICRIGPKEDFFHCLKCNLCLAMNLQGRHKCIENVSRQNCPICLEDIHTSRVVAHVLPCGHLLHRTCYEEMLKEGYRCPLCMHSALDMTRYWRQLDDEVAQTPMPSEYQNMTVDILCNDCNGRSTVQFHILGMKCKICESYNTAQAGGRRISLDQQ
# Text: as §1, §2
# Pirh2 I107D = biological target: T4, Pirh2 I107D (Homo sapiens, UniProt Q96PM5, I107D); experiment: ITC of Ala6/C-degron peptide with mutant Pirh2 I107D; format: binding; settings: Fig. 4a
# T4 construct: Pirh2 NTD + RING (residues 1–189); 8xHis-SUMO (N, cleaved yes); made in house; host or cells: E. coli BL21 (DE3)
# T4 sequence (Q96PM5 1-189 I107D): T1 sequence (Q96PM5 1-189) with I107D
# Text: as §1, §2
# Pirh2 NTD = biological target: T5, Pirh2 NTD (Homo sapiens, UniProt Q96PM5); experiment: ITC of degron peptide with Pirh2 NTD; settings: 16 °C, 20 mM Tris-HCl pH 7.5, 150 mM NaCl, 10 μM Zn2+, one-site binding model, repeated at least three times
# T5 construct: Pirh2 NTD (residues 1–137); 8xHis-SUMO (N, cleaved yes); made in house; host or cells: E. coli BL21 (DE3)
# T5 sequence (Q96PM5 1-137): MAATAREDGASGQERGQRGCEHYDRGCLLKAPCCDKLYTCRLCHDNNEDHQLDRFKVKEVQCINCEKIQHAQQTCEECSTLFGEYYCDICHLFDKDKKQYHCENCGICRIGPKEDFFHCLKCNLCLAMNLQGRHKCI
# Text: as §1, §2
# Pirh2 S155D = biological target: T6, Pirh2 S155D (Homo sapiens, UniProt Q96PM5, S155D); experiment: ITC of Ala6/C-degron peptide with mutant Pirh2 S155D; format: binding; settings: Fig. 4a
# T6 construct: Pirh2 NTD + RING (residues 1–189); 8xHis-SUMO (N, cleaved yes); made in house; host or cells: E. coli BL21 (DE3)
# T6 sequence (Q96PM5 1-189 S155D): T1 sequence (Q96PM5 1-189) with S155D
# Text: as §1, §2
# Pirh2 R54A = biological target: T7, Pirh2 R54A (Homo sapiens, UniProt Q96PM5, R54A); experiment: ITC of Ala6/C-degron peptide with mutant Pirh2 R54A; format: binding; settings: Fig. 4a
# T7 construct: Pirh2 NTD + RING (residues 1–189); 8xHis-SUMO (N, cleaved yes); made in house; host or cells: E. coli BL21 (DE3)
# T7 sequence (Q96PM5 1-189 R54A): T1 sequence (Q96PM5 1-189) with R54A
# Text: as §1, §2
# [1] = ITC, 16 °C, 20 mM Tris-HCl pH 7.5, 150 mM NaCl, 10 μM Zn2+, one-site binding model, repeated at least three times, NB = no detectable binding under our experimental conditions, read-out: KD
Molecule,Kd (Pirh2 (NTD + RING); [1]),other results
C[C@H](N)C(=O)N[C@@H](C)C(=O)N[C@@H](C)C(=O)N[C@@H](C)C(=O)N[C@@H](C)C(=O)O [AAAAA],2.5 µM,–
C[C@H](N)C(=O)N[C@@H](C)C(=O)N[C@@H](C)C(=O)O [AAA],> 100 µM,–
YKTSAAVA,13 µM,–
YKTSAKAA,5.5 µM,–
YKTSAPAA,0.9 µM,–
YKTSTAAAAA,–,Kd (Pirh2 (NTD + RING)): 0.5 µM

# Continued, in another order:
Kd (Pirh2 (NTD + RING); [1]),Molecule,other results
0.9 µM,C[C@H](N)C(=O)N[C@@H](C)C(=O)N[C@@H](C)C(=O)N[C@@H](C)C(=O)N[C@@H](C)C(=O)N[C@@H](C)C(=O)O [AAAAAA],–
7.4 µM,C[C@H](N)C(=O)N[C@@H](C)C(=O)N[C@@H](C)C(=O)N[C@@H](C)C(=O)O [AAAA] (H-AAAA-OH),–
0.5 µM,YKTSAAAAAA [Ala6/C-degron],Kd (Pirh2 D94A): 3 µM; Kd (full-length Pirh2): 0.9 µM; Kd (Pirh2 I107D): 9.1 µM; Kd (Pirh2 NTD): 5.5 µM; Kd (Pirh2 S155D): 4.5 µM; Kd (Pirh2 R54A): > 100 µM
13 µM,YKTSAAIA,–
2.8 µM,YKTSALAA,–
3 µM,YKTSASAA,–
0.5 µM,YKTSATAAAA,–
4.5 µM,YKTSSAAA,–
